Experimental findings from patent US10913727B2, “Modulators of the integrated stress pathway” (Calico Life Sciences LLC, priority 2016, dated 2021) are described below.

This test deals with HEK293T cells carrying the ATF4 luciferase reporter. Nature of the test: ATF4-Luc assay, in vitro model of Vanishing Cell White Matter Disease (VWMD). It counts as cell-based. The note with it: Homo sapiens, HEK-293T, 1 μg/mL tunicamycin, 7 hours, One Glo luminescence. The method, boiled down:
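Stable HEK293T line with human ATF4 5′-UTR–firefly luciferase reporter treated with 1 μg/mL tunicamycin plus 200 nM compound for 7 h. Luminescence read; EC50 derived.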
For orientation: EC50 means the concentration giving half of the maximal effect. On to `CCc1cc(C(=O)NC23CC(NC(=O)COc4ccc(Cl)c(F)c4)(C2)C3)n(C)n1` [Compound 254, N-{3-[2-(4-chloro-3-fluorophenoxy)acetamido]bicyclo[1.1.1]pentan-1-yl}-3-ethyl-1-methyl-1H-pyrazole-5-carboxamide], for which the concentration giving a half-maximal response (EC50) was under 50 nM.

Regarding `O=C(COc1ccc(Cl)c(F)c1)NC12CC(NC(=O)c3ccc(C(F)F)cn3)(C1)C2` [Compound 233, N-{3-[2-(4-chloro-3-fluorophenoxy)acetamido]bicyclo[1.1.1]pentan-1-yl}-5-(difluoromethyl)pyridine-2-carboxamide], the EC50 was under 50 nM.

For the compound `CCc1ccc(C(=O)NC23CC(NC(=O)COc4ccc(Cl)c(Cl)c4)(C2)C3)nc1` [Compound 700, N-{3-[2-(3,4-dichlorophenoxy)acetamido]bicyclo[1.1.1]pentan-1-yl}-5-ethylpyridine-2-carboxamide], the concentration giving a half-maximal response (EC50) is under 50 nM.

Take `O=C(COc1ccc(Cl)c(F)c1)NC12CC(NC(=O)c3ccc(C4CC4)cn3)(C1)C2` [Compound 143, N-{3-[2-(4-chloro-3-fluorophenoxy)acetamido]bicyclo[1.1.1]pentan-1-yl}-5-cyclopropylpyridine-2-carboxamide]: the concentration giving a half-maximal response (EC50) lay within 50 to 250 nM.

As for `COc1ccc(F)c(C(=O)NC23CC(NC(=O)COc4ccc(Cl)c(F)c4)(C2)C3)c1` [Compound 520, N-{3-[2-(4-chloro-3-fluorophenoxy)acetamido]bicyclo[1.1.1]pentan-1-yl}-2-fluoro-5-methoxybenzamide], the EC50 was in the range of 250 to 1000 nM.

Consider `O=C(COc1ccc(Cl)c(F)c1)NC12CCC(NC(=O)c3ccncc3)(CC1)C(O)C2` (centres unmarked) [Compound 218, N-{4-[2-(4-chloro-3-fluorophenoxy)acetamido]-2-hydroxybicyclo[2.2.2]octan-1-yl}pyridine-4-carboxamide], for which the EC50 is over 2000 nM.

With `O=C(COc1ccc(Cl)c(F)c1)NC12CC(NC(=O)c3cc(N4CC(F)(F)C4)ccn3)(C1)C2` [Compound 189, N-{3-[2-(4-chloro-3-fluorophenoxy)acetamido]bicyclo[1.1.1]pentan-1-yl}-4-(3,3-difluoroazetidin-1-yl)pyridine-2-carboxamide], the 50% effective concentration (EC50) was 250 to 1000 nM.

Regarding `O=C(COc1ccc(Cl)c(F)c1)NC12CC(NC(=O)c3n[nH]c4ccccc34)(C1)C2` [Compound 318, N-{3-[2-(4-chloro-3-fluorophenoxy)acetamido]bicyclo[1.1.1]pentan-1-yl}-1H-indazole-3-carboxamide], the EC50 was over 2000 nM.

Regarding `Cc1ccc(C(=O)NC23CCC(NC(=O)COc4ccc(Cl)c(F)c4)(CC2)[C@@H](O)C3)nc1` [Compound 729, N-{(3S)-4-[2-(4-chloro-3-fluorophenoxy)acetamido]-3-hydroxybicyclo[2.2.2]octan-1-yl}-5-methylpyridine-2-carboxamide], the concentration for a half-maximal effect (EC50) was under 50 nM.

As to `O=C(COc1ccc(Cl)c(Cl)c1)NC12CC(NC(=O)c3ccc(OC(F)(F)F)cn3)(C1)C2` [Compound 144, N-{3-[2-(3,4-dichlorophenoxy)acetamido]bicyclo[1.1.1]pentan-1-yl}-5-(trifluoromethoxy)pyridine-2-carboxamide], the EC50 was under 50 nM.

Consider `O=C(COc1ccc(Cl)c(F)c1)NC12CC(NC(=O)c3cccc(CO)c3)(C1)C2` [Compound 419, N-{3-[2-(4-chloro-3-fluorophenoxy)acetamido]bicyclo[1.1.1]pentan-1-yl}-3-(hydroxymethyl)benzamide], for which the concentration for a half-maximal effect (EC50) fell in the range of 250 to 1000 nM.

With `O=C(COc1ccc(Cl)c(F)c1)NC12CC(NC(=O)c3csc(C4CC4)n3)(C1)C2` [Compound 655, N-{3-[2-(4-chloro-3-fluorophenoxy)acetamido]bicyclo[1.1.1]pentan-1-yl}-2-cyclopropyl-1,3-thiazole-4-carboxamide], the concentration giving a half-maximal response (EC50) was 50 to 250 nM.

As to `O=C(COc1ccc(Cl)c(F)c1)NC12CC(Nc3ccc(C(F)(F)F)nn3)(C1)C2` [Compound 127, 2-(4-chloro-3-fluorophenoxy)-N-(3-{[6-(trifluoromethyl)pyridazin-3-yl]amino}bicyclo[1.1.1]pentan-1-yl)acetamide], the half-maximal effective concentration (EC50) is over 2000 nM.

In the case of `O=C(COc1ccc(Cl)c(F)c1)NC12CC(NC(=O)c3ccc4nsnc4c3)(C1)C2` [Compound 797, N-{3-[2-(4-chloro-3-fluorophenoxy)acetamido]bicyclo[1.1.1]pentan-1-yl}-2,1,3-benzothiadiazole-5-carboxamide], the EC50 was over 2000 nM.

As to `Cc1ccn2cc(C(=O)NC34CC(NC(=O)COc5ccc(Cl)c(F)c5)(C3)C4)nc2c1` [Compound 808, N-{3-[2-(4-chloro-3-fluorophenoxy)acetamido]bicyclo[1.1.1]pentan-1-yl}-7-methylimidazo[1,2-a]pyridine-2-carboxamide], the concentration giving a half-maximal response (EC50) is over 2000 nM.

Take `Cc1cncc(C(=O)NC23CC(NC(=O)COc4ccc(Cl)c(Cl)c4)(C2)C3)n1` [Compound 737, N-{3-[2-(3,4-dichlorophenoxy)acetamido]bicyclo[1.1.1]pentan-1-yl}-6-methylpyrazine-2-carboxamide]: the concentration for a half-maximal effect (EC50) fell in the range of 250 to 1000 nM.

For `Cc1cc2c(NC34CC(NC(=O)COc5ccc6c(c5)OC(F)(F)O6)(C3)C4)nccn2n1` [Compound 422, 2-[(2,2-difluoro-2H-1,3-benzodioxol-5-yl)oxy]-N-{3-[(2-methylpyrazolo[1,5-a]pyrazin-4-yl)amino]bicyclo[1.1.1]pentan-1-yl}acetamide], the 50% effective concentration (EC50) lay in the range of 50 to 250 nM.

Regarding `O=C(COc1ccc(Cl)c(F)c1)NC12CCC(NC(=O)c3ccc(Cl)cn3)(CC1)C[C@@H]2O` [Compound 730, 5-chloro-N-{(3S)-4-[2-(4-chloro-3-fluorophenoxy)acetamido]-3-hydroxybicyclo[2.2.2]octan-1-yl}pyridine-2-carboxamide], the EC50 was 50 to 250 nM.

Take `Cc1cc(C(=O)NC23CC(NC(=O)COc4ccc(Cl)c(F)c4)(C2)C3)n(CC(C)(C)O)n1` [Compound 459, N-{3-[2-(4-chloro-3-fluorophenoxy)acetamido]bicyclo[1.1.1]pentan-1-yl}-1-(2-hydroxy-2-methylpropyl)-3-methyl-1H-pyrazole-5-carboxamide]: the EC50 is over 2000 nM.

In the case of `CCc1ocnc1C(=O)NC12CC(NC(=O)COc3ccc(Cl)c(F)c3)(C1)C2` [Compound 859, N-{3-[2-(4-chloro-3-fluorophenoxy)acetamido]bicyclo[1.1.1]pentan-1-yl}-5-ethyl-1,3-oxazole-4-carboxamide], the EC50 was over 2000 nM.

`Cc1cc(C(=O)NC23CCC(NC(=O)COc4ccc(Cl)c(F)c4)(CC2)C[C@@H]3O)n(C)n1` [Compound 506, N-{(2S)-4-[2-(4-chloro-3-fluorophenoxy)acetamido]-2-hydroxybicyclo[2.2.2]octan-1-yl}-1,3-dimethyl-1H-pyrazole-5-carboxamide]: the EC50 is 50 to 250 nM.

Take `O=C(COc1ccc(Cl)cc1)NC12CC(Nc3nnc(-c4ccc(Cl)cc4)o3)(C1)C2` [Compound 264, 2-(4-chlorophenoxy)-N-(3-{[5-(4-chlorophenyl)-1,3,4-oxadiazol-2-yl]amino}bicyclo[1.1.1]pentan-1-yl)acetamide]: the EC50 lay within 250 to 1000 nM.

On to `O=C(COc1ccc(Cl)c(F)c1)NC12CCC(NC(=O)c3cccc[n+]3[O-])(CC1)CC2O` (centres unmarked) [Compound 944, N-{4-[2-(4-chloro-3-fluorophenoxy)acetamido]-3-hydroxybicyclo[2.2.2]octan-1-yl}-1-oxo-1λ^5-pyridine-2-carboxamide], for which the EC50 is over 2000 nM.

In the case of `O=C(COc1ccc(Cl)c(F)c1)NC12CCC(NC(=O)c3ccccc3F)(CC1)C[C@@H]2O` [Compound 560, N-{(3S)-4-[2-(4-chloro-3-fluorophenoxy)acetamido]-3-hydroxybicyclo[2.2.2]octan-1-yl}-2-fluorobenzamide], the EC50 was 50 to 250 nM.

On to `O=C(COc1ccc(Cl)c(F)c1)NC12CC(NC(=O)c3ccc[n+]([O-])c3)(C1)C2` [Compound 402, N-{3-[2-(4-chloro-3-fluorophenoxy)acetamido]bicyclo[1.1.1]pentan-1-yl}-1-oxo-1λ^5-pyridine-3-carboxamide], for which the EC50 was over 2000 nM.

In the case of `O=C(COc1ccc(Cl)c(F)c1)NC12CC(NC(=O)c3ccccc3-n3cncn3)(C1)C2` [Compound 862, N-{3-[2-(4-chloro-3-fluorophenoxy)acetamido]bicyclo[1.1.1]pentan-1-yl}-2-(1H-1,2,4-triazol-1-yl)benzamide], the EC50 is over 2000 nM.

For `Cc1cc(C(=O)NC23CCC(NC(=O)COc4ccc(Cl)c(F)c4)(CC2)[C@H](O)C3)on1` (single isomer, unassigned) [Compound 357], the EC50 lay within 250 to 1000 nM.

Take `Cc1ccc(F)c(C(=O)NC23CC(NC(=O)COc4ccc(Cl)c(F)c4)(C2)C3)n1` [Compound 832, N-{3-[2-(4-chloro-3-fluorophenoxy)acetamido]bicyclo[1.1.1]pentan-1-yl}-3-fluoro-6-methylpyridine-2-carboxamide]: the EC50 lay within 50 to 250 nM.

On to `O=C(COc1ccc(Cl)c(F)c1)NC12CC(NC(=O)c3cnc(C(F)F)cn3)(C1)C2` [Compound 134, N-{3-[2-(4-chloro-3-fluorophenoxy)acetamido]bicyclo[1.1.1]pentan-1-yl}-5-(difluoromethyl)pyrazine-2-carboxamide], for which the EC50 was under 50 nM.

For `Cc1nc(C(=O)NC23CCC(NC(=O)COc4ccc(Cl)c(F)c4)(CC2)C(O)C3)ccc1C#N` (centres unmarked) [Compound 916, N-{4-[2-(4-chloro-3-fluorophenoxy)acetamido]-3-hydroxybicyclo[2.2.2]octan-1-yl}-5-cyano-6-methylpyridine-2-carboxamide], the half-maximal effective concentration (EC50) lay in the range of 50 to 250 nM.

Regarding `O=C(COc1ccc(Cl)c(F)c1)NC12CC(NC(=O)c3cnn(-c4ccccn4)c3)(C1)C2` [Compound 802, N-{3-[2-(4-chloro-3-fluorophenoxy)acetamido]bicyclo[1.1.1]pentan-1-yl}-1-(pyridin-2-yl)-1H-pyrazole-4-carboxamide], the EC50 was over 2000 nM.

`O=C(COc1ccc(Cl)c(F)c1)NC12CC(NC(=O)c3ccc4cc(F)ccc4n3)(C1)C2` [Compound 929, N-{3-[2-(4-chloro-3-fluorophenoxy)acetamido]bicyclo[1.1.1]pentan-1-yl}-6-fluoroquinoline-2-carboxamide]: the EC50 was under 50 nM.
